Structures are written as SMILES.

What all share (assay type): functional, HCT-116
Test [1] is described as follows: Antitumor activity against human HCT116 cells xenografted in athymic nude mouse assessed as tumor volume at 30 mg/kg, po bid administered for 21 days measured on day 8 post last dose (reference value: 38.5 +/- 4.1 mm'3).
Test [2] can be described thus: Antitumor activity against human HCT116 cells xenografted in athymic nude mouse assessed as tumor volume at 30 mg/kg, po bid administered for 21 days measured on day 13 post last dose (reference value: 100.9 +/- 13.7 mm'3). (A xenograft is tissue or cells of one species grown in another, often human tumour cells in immunodeficient mice.)
Test [3] in a line: Antitumor activity against human HCT116 cells xenografted in athymic nude mouse assessed as tumor volume at 30 mg/kg, po bid administered for 21 days measured on day 16 post last dose (reference value: 163.1 +/- 25.7 mm'3).
Test [4] in a line: Antitumor activity against human HCT116 cells xenografted in athymic nude mouse assessed as tumor volume at 30 mg/kg, po bid administered for 21 days measured on day 20 post last dose (reference value: 287.1 +/- 31.9 mm'3).
A short description of test [5]: Antitumor activity against human HCT116 cells xenografted in athymic nude mouse assessed as tumor volume at 30 mg/kg, po bid administered for 21 days measured on day 23 post last dose (reference value: 402.2 +/- 43.1 mm'3).
Test [6] can be described thus: Antitumor activity against human HCT116 cells xenografted in athymic nude mouse assessed as tumor volume at 30 mg/kg, po bid administered for 21 days measured on day 27 post last dose (Rvb= 545 +/- 41.1 mm'3).
The nature of test [7]: Antitumor activity against human HCT116 cells xenografted in athymic nude mouse assessed as tumor volume at 60 mg/kg, po bid administered for 21 days measured on day 8 post last dose (reference value: 38.5 +/- 4.1 mm'3).
Test [8] is described as follows: Antitumor activity against human HCT116 cells xenografted in athymic nude mouse assessed as tumor volume at 60 mg/kg, po bid administered for 21 days measured on day 13 post last dose (reference value: 100.9 +/- 13.7 mm'3).
The nature of test [9]: Antitumor activity against human HCT116 cells xenografted in athymic nude mouse assessed as tumor volume at 60 mg/kg, po bid administered for 21 days measured on day 16 post last dose (reference value: 163.1 +/- 25.7 mm'3).
A short description of test [10]: Antitumor activity against human HCT116 cells xenografted in athymic nude mouse assessed as tumor volume at 60 mg/kg, po bid administered for 21 days measured on day 20 post last dose (reference value: 287.1 +/- 31.9 mm'3).
A short description of test [11]: Antitumor activity against human HCT116 cells xenografted in athymic nude mouse assessed as tumor volume at 60 mg/kg, po bid administered for 21 days measured on day 23 post last dose (reference value: 402.2 +/- 43.1 mm'3).
Test [12] can be described thus: Antitumor activity against human HCT116 cells xenografted in athymic nude mouse assessed as tumor volume at 60 mg/kg, po bid administered for 21 days measured on day 27 post last dose (Rvb= 545 +/- 41.1 mm'3).
The nature of test [13]: Antitumor activity against human HCT116 cells xenografted in athymic nude mouse assessed as tumor volume at 60 mg/kg, po qd administered for 21 days measured on day 8 post last dose (reference value: 38.5 +/- 4.1 mm'3).
Test [14] can be described thus: Antitumor activity against human HCT116 cells xenografted in athymic nude mouse assessed as tumor volume at 60 mg/kg, po qd administered for 21 days measured on day 13 post last dose (reference value: 100.9 +/- 13.7 mm'3).
Test [15] can be described thus: Antitumor activity against human HCT116 cells xenografted in athymic nude mouse assessed as tumor volume at 60 mg/kg, po qd administered for 21 days measured on day 16 post last dose (reference value: 163.1 +/- 25.7 mm'3).
Test [16] can be described thus: Antitumor activity against human HCT116 cells xenografted in athymic nude mouse assessed as tumor volume at 60 mg/kg, po qd administered for 21 days measured on day 20 post last dose (reference value: 287.1 +/- 31.9 mm'3).
The nature of test [17]: Antitumor activity against human HCT116 cells xenografted in athymic nude mouse assessed as tumor volume at 60 mg/kg, po qd administered for 21 days measured on day 23 post last dose (reference value: 402.2 +/- 43.1 mm'3).
Test [18] is described as follows: Antitumor activity against human HCT116 cells xenografted in athymic nude mouse assessed as tumor volume at 60 mg/kg, po qd administered for 21 days measured on day 27 post last dose (Rvb= 545 +/- 41.1 mm'3).

With `Cl.FC(F)(F)c1cccc(-c2c[nH]c(C3CCN(c4ncnc5[nH]ncc45)CC3)n2)c1`, the Activity amounted to 36.5 mm3 in [1]; 58.7 mm3 in [2]; 90.9 mm3 in [3]; 134.6 mm3 in [4]; 192.7 mm3 in [5]; 296.3 mm3 in test [6]. In addition, the Activity is recorded as 28.8 mm3 in test [7]; 42.1 mm3 in test [8]; 72.1 mm3 in test [9]; 139 mm3 in test [10]; 188.4 mm3 in test [11]; 280 mm3 in test [12]. Also, the Activity in test [13] is 30.6 mm3; in test [14], 57.8 mm3; in [15], 85 mm3; in [16], 142.5 mm3; in [17], 194.5 mm3; in test [18], 252.7 mm3.

Values taken from ChEMBL document CHEMBL3880427, “P70 S6 kinase inhibitors” (2012).
